The text below walks through data of patent US10053434B2, “Histone deacetylase inhibitors and compositions and methods of use thereof” (CHDI Foundation, Inc., priority 2015, dated 2018).

What is called IC50 is the midpoint of a concentration-inhibition curve.

The test system of assay [1] is Cellular Class IIa HDAC activity. Nature of the assay: Inhibition of cellular Class IIa HDAC activity; Cell (Lys-TFA) substrate, Jurkat E6-1 cells. It is filed as cell-based. To be noted: Boc-Lys(TFA)-AMC substrate. The source says: Example 29: Analysis of Inhibition of Cellular Class IIa HDAC Activity with Class IIa Histone Deacetylase (HDAC) Inhibitors; Cell (Lys-TFA) Substrate
(§1) The potency of Class IIa Histone Deacetylase (HDAC) inhibitors was quantified by measuring the cellular histone deacetylase enzymatic activity using the fluorogenic substrate, Boc-Lys(TFA)-AMC. After penetration in Jurkat E6-1 cells, the substrate was deacetylated to Boc-Lys-AMC. After cell lysis and cleavage by trypsin, the fluorophore AMC was released from the deacetylated substrate only. The fluorescence of the sample was directly related to the histone deacetylase activity in the sample.
Jurkat E6.1 Cell Culture and Plating.
(§2) Jurkat E6.1 cells were cultured according to standard cell culture protocols in Jurkat E6.1 Growth Media (RPMI without phenol red, 10% FBS, 10 mM HEPES, and 1 mM Sodium Pyruvate). Jurkat E6.1 cells were counted using a Coulter Counter and resuspended in Jurkat E6.1 growth media at a concentration of 75,000 cells/35 μL. 35 μL or 75,000 cells was seeded into Greiner microtitre assay plates. The plates were then incubated at 37° C. and 5% CO2 while other assay components were being prepared.
(§3) Serially Dilute HDAC Inhibitor Compounds.
(§4) Serial dilutions of the HDAC inhibitors and control reference compound (1-(5-(3-((4-(1,3,4-oxadiazol-2-yl)phenoxy)methyl)-1,2,4-oxadiazol-5-yl)thiophen-2-yl)-2,2,2-trifluoroethanone) were made by first resuspending the lyophilized compound to a final concentration of 10 mM in 100% DMSO. Stocks of 70 μL aliquots of the 10 mM compound in DMSO were prepared and stored at −20° C. From one stock aliquot of each tested compound and the reference compound, a 16-point serial dilution was prepared according to Table 1 using a 125 μL 16-channel Matrix multi-channel pipette.
(§5) 2 μL (200×) of each diluted solution and each control (full activity: 100% DMSO alone or full inhibition 1 mM) was stamped into V-bottom polypropylene 384-well compound plates using either the Bravo, Janus, or 12.5 μL 16-channel Matrix multi-channel pipette. Each well with the 200× compound solution was diluted 1:20 by the addition of 38 μL Jurkat assay buffer+DMSO (9.5% DMSO, RPMI without phenol red, 0.09% FBS, 9 mM Hepes, and 0.9 mM Sodium Pyruvate equilibrated to r.t.)
Prepare 5× (500 μM) Boc-Lys(TFA)-AMC Substrate.
(§6) 5× (500 μM) substrate was prepared just prior to the addition to the assay. The 5× substrate was prepared by diluting a 100 mM Boc-Lys(TFA)-AMC in DMSO solution 1:200 by adding it drop-wise to Jurkat assay medium (RPMI without phenol red, 0.1% FBS, 10 mM Hepes, and 1 mM Sodium Pyruvate equilibrated to 37° C.) while vortexing at slow speed to prevent precipitation.
(§7) 10 mL of 3× lysis buffer was prepared with 8.8 mL of 3× stock lysis buffer (50 mM Tris-HCl, pH 8.0, 137 mM NaCl, 2.7 mM KCl, 1 mM MgCl2, 1% Nonidet P40 Substitute equilibrated to r.t.) and 1.2 mL of 3 mg/mL Trypsin equilibrated to r.t.
(§8) 5 μL of each solution of 1:20 diluted compound from above was transferred to the Greiner microtitre assay plates with 75,000 cells/well using the Bravo. Cells were then incubated for 2 hours at 37° C. and 5% CO2. The assay was then started by adding 10 μL of 5× (500 μM) substrate to the assay plate using either the Bravo or 16-channel Matrix multi-channel pipette. The cells were then incubated for 3 hours at 37° C. and 5% CO2. Next, 25 μL of 3× lysis buffer was added to each well using either the 125 μL 16 channel pipette or the Bravo. The assay plate was then incubated overnight (15-16 hours) at 37° C. and 5% CO2. The following day, the plates were shaken on an orbital shaker for 1 minute at 900 rpm. Finally the top read fluorescence (Excitation: 355 nm, Emission: 460 nm) was measured using PerkinElmer EnVision.

The subject of assay [2] is Cellular Class I HDAC activity. As to the kind of experiment: Inhibition of cellular Class I HDAC activity; Cell (Lys-Ac) substrate, Jurkat E6-1 cells. It is filed as cell-based. To be noted: Boc-Lys(Ac)-AMC substrate.
Excerpt: as §1, §2, §4, §5, §6, §7, §8
Example 30: Analysis of Inhibition of Cellular Class I HDAC Activity with Class IIa Histone Deacetylase (HDAC) Inhibitors; Cell (Lys-Ac) Substrate
The Class I HDAC activity of Class IIa Histone Deacetylase (HDAC) inhibitors was quantified by measuring the cellular histone deacetylase enzymatic activity using the fluorogenic substrate, Boc-Lys(Ac)-AMC. This was performed according to the procedure in Example 29, using Boc-Lys(Ac)-AMC substrate in place of Boc-Lys(TFA)-AMC.

Assay [3] deals with human catalytic domain HDAC4 protein (amino acids 648-1032) (Homo sapiens (Human), UniProt P56524). Nature of the assay: HDAC4 catalytic domain enzymatic activity, fluorogenic substrate Boc-Lys(TFA)-AMC. The conditions noted are these: read-out: HDAC4 Biochemical IC50.
human catalytic domain HDAC4 protein (amino acids 648-1032), sequence (P56524 648-1032): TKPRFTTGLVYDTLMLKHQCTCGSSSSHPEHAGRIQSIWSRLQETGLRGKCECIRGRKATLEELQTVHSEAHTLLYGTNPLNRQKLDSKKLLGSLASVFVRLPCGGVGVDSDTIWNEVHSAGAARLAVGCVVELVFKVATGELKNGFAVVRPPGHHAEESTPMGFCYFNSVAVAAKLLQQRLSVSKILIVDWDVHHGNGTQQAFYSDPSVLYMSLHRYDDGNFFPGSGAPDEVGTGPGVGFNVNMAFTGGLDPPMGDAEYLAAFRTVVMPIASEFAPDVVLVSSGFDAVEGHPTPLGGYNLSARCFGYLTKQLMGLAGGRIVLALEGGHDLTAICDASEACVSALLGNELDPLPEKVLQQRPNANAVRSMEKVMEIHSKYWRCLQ
Excerpt: Example 25: Analysis of Inhibition of HDAC4 with Class IIa Histone Deacetylase (HDAC) Inhibitors
The potency of Class IIa Histone Deacetylase (HDAC) inhibitors was quantified by measuring the Histone Deacetylase 4 (HDAC4) catalytic domain enzymatic activity using the fluorogenic substrate, Boc-Lys(TFA)-AMC. The substrate was deacetylated to Boc-Lys-AMC by HDAC4. […] The fluorescence of the sample was directly related to the histone deacetylase activity in the sample.
as §3
as §4, with “dimethyl sulfoxide (DMSO).” for “DMSO.”, “60” for “70”, “pipette (Matrix Technologies Ltd).” for “pipette.”
2 μL (200×) of each diluted solution and each control (full activity: 100% DMSO alone or full inhibition 1 mM) was stamped into V-bottomed polypropylene 384-well compound plates using either the Bravo (384-well head from Agilent) or 12.5 μL 16-channel Matrix multi-channel pipette (Matrix Technologies Ltd). Each well with the 200× compound solution was diluted 1:20 by the addition of 38 μL assay buffer+DMSO (10.5% DMSO, 45 mM Tris-HCl, 123 mM NaCl, 2.4 mM KCl, and 0.9 mM MgCl2 at pH 8.0 and equilibrated to r.t.).
Prepare HDAC4 Catalytic Domain Enzyme (0.2 μg/mL).
The HDAC4 catalytic domain enzyme was human catalytic domain HDAC4 protein (amino acids 648-1032) with a C-terminal 6× histidine tag, produced by BioFocus. A working solution of enzyme was prepared from a […] stock aliquot of HDAC4 catalytic domain (thawed on ice) diluted to 0.2 μg/mL with assay buffer (50 mM Tris-HCl, 137 mM NaCl, 2.7 mM KCl, and 1 mM MgCl2 at pH 8 and equilibrated to r.t.) just prior to the addition of the enzyme to the assay.
Prepare 5× (50 μM) Boc-Lys(TFA)-AMC Substrate.
5× (50 μM) substrate was prepared just prior to the addition to the assay. A 1 mM substrate stock was made by diluting a 100 mM Boc-Lys(TFA)-AMC in DMSO solution 1:100 by adding it drop-wise to assay buffer (equilibrated to r.t.) while vortexing at slow speed to prevent precipitation. The 5× substrate was prepared by diluting the 1 mM substrate solution 1:20 by adding it drop-wise to assay buffer (equilibrated to r.t.) while vortexing at slow speed to prevent precipitation.
Prepare 3× (30 μM) Developer/Stop Solution.
3× (30 μM) Developer/Stop Solution was prepared just prior to addition to the plate by diluting a stock solution of 10 mM reference compound 1:333 in 25 mg/mL trypsin (PAA Laboratories Ltd.) equilibrated to r.t.
5 μL of each solution of 1:20 diluted compound from above was transferred to a clear bottomed, black, 384-well assay plate using the Bravo or the Janus (384-well MDT head from Perkin Elmer). Using a 16-channel Matrix multi-channel pipette, 35 μL of the working solution of HDAC4 catalytic domain enzyme (0.2 μg/mL in assay buffer) was transferred to the assay plate. The assay was then started by adding 10 μL of 5× (50 μM) substrate to the assay plates using either the Bravo, Janus or 16-channel Matrix multi-channel pipette. The assay plate was then shaken for two minutes on an orbital shaker at 900 rpm (rotations per minute). Next the plate was incubated for 15 minutes at 37° C. The reaction was stopped by adding 25 μL of 3× (30 μM) developer/stop solution to the assay plates using either the Bravo, Janus or a 16-channel Matrix multi-channel pipette. Assay plates were then shaken for 5 minutes on an orbital shaker at 1200 rpm. Next, the assay plates were incubated at 37° C. for 1 hour in a tissue culture incubator. […]

Turning to `C[C@H](CN1CCC[C@@H]1C)NC(=O)c1ccc(-c2noc(C(F)(F)F)n2)cn1` [Example 24, N—((R)-1-((S)-2-Methylpyrrolidin-1-yl)propan-2-yl)-5-(5-(trifluoromethyl)-1,2,4-oxadiazol-3-yl)picolinamide], the IC50 in assay [1] stood at 1030 nM; in assay [2], 33700 nM; in assay [3] it was 134 nM.
